Assay results as given in ChEMBL document CHEMBL1201862, “PubChem BioAssay data set” (2004).
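Tested at 5 concentrations; 48 h exposure; 96-well plates; endpoints linearly interpolated, else capped at highest concentration. GI50 = concentration required for 50% inhibition of growth.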 Active and inactive are the calls of the source. Rule as the data show it: active = GI50 up to about 1.1 µM and inactive = higher.

Tests used:
Assay in all cases: DTP human tumour cell line panel, 48 h
OVCAR-4 = system: OVCAR-4
HT-29 = system: HT-29
786-0 = system: 786-0
NCI-H522 = system: NCI-H522
SW-620 = system: SW-620
SNB-19 = system: SNB-19
DU-145 = system: DU-145
HL-60 = system: HL-60
COLO 205 = system: COLO 205
U-251 = system: U-251
SK-OV-3 = system: SK-OV-3
OVCAR-8 = system: OVCAR-8
TK-10 = system: TK-10
OVCAR-5 = system: OVCAR-5
SF-539 = system: SF-539
KM12 = system: KM12
A498 = system: A498
SR = system: SR
SNB-75 = system: SNB-75

Measured: GI50

CC(=O)NC(=O)/N=C1\NCCC(=O)N1CCc1c[nH]c2ccccc12
inactive: OVCAR-4 > 100 µM | HT-29 > 100 µM | 786-0 > 100 µM | NCI-H522 > 100 µM | SW-620 > 100 µM | SNB-19 > 100 µM | DU-145 > 100 µM | HL-60 > 100 µM | COLO 205 > 100 µM | U-251 > 100 µM | SK-OV-3 > 100 µM | OVCAR-8 > 100 µM | TK-10 > 100 µM | OVCAR-5 > 100 µM | SF-539 > 100 µM | KM12 > 100 µM | A498 > 100 µM

NC(=O)c1ncn(C2CCC(CP(=O)(O)O)C2)c1N (configuration not stated)
inactive: OVCAR-4 > 100 µM | HT-29 > 100 µM | 786-0 > 100 µM | SR > 100 µM | SW-620 > 100 µM | SNB-19 > 100 µM | DU-145 > 100 µM | COLO 205 > 100 µM | U-251 > 100 µM | SK-OV-3 > 100 µM | OVCAR-8 > 100 µM | TK-10 > 100 µM | OVCAR-5 > 100 µM | SF-539 > 100 µM | KM12 > 100 µM | SNB-75 > 100 µM

CC(=O)N(CN1C(=O)CCC1C(=O)O)c1ccc(C)cc1 (configuration not stated)
inactive: OVCAR-4 > 100 µM | HT-29 > 100 µM | 786-0 > 100 µM | NCI-H522 > 100 µM | SW-620 > 100 µM | SNB-19 > 100 µM | DU-145 > 100 µM | HL-60 > 100 µM | COLO 205 > 100 µM | U-251 > 100 µM | SK-OV-3 > 100 µM | OVCAR-8 > 100 µM | TK-10 > 100 µM | OVCAR-5 > 100 µM | SF-539 > 100 µM | KM12 > 100 µM | A498 > 100 µM | SNB-75 > 100 µM

CN1CCC2(CC1)/C(=N/C1CCCCC1)NC(=O)N2c1ccccc1
inactive: HT-29 > 100 µM | 786-0 > 100 µM | SR > 100 µM | SW-620 > 100 µM | SNB-19 > 100 µM | DU-145 > 100 µM | HL-60 > 100 µM | COLO 205 > 100 µM | U-251 > 100 µM | SK-OV-3 > 100 µM | OVCAR-8 > 100 µM | TK-10 > 100 µM | OVCAR-5 > 100 µM | KM12 > 100 µM | A498 > 100 µM | SNB-75 > 100 µM
